According to the supplement of paper PMC10307832:

Key:
Experiment in all cases: relative viability (nuclei count vs DMSO), 5 days (fraction); higher = more cells survive
[1] = compound: COC1=CC=C(C=C1)CN2C=CC3=C2C=C(C=C3)C(=O)NO + NC(=O)Nc1cc(-c2cccc(F)c2)sc1C(=O)N[C@H]1CCCNC1 [AZD7762] (partner 0.2 µM)
Procedure, shortened: (§1)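 For relative viability, nuclei counts in treated wells were divided by those in vehicle wells. Lung cancer cell lines had been pin-tool dosed in 1536-well plates the day after seeding and cultured for 5 days, then fixed and stained in one step (final 0.05% Triton X-100, 1% formaldehyde, 1 ug/ml Hoechst) and imaged at 4×. Doses were one drug alone or a fixed anchor-drug dose plus five library-drug doses (not always all listed) in √10 steps, and values are duplicate-plate medians.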

[2] = compound: COC1=CC=C(C=C1)CN2C=CC3=C2C=C(C=C3)C(=O)NO + CCNC(=O)c1noc(-c2cc(C(C)C)c(O)cc2O)c1-c1ccc(CN2CCOCC2)cc1 [Luminespib] (partner 0.01 µM)
Procedure, shortened: as §1

[3] = compound: C[C@]1(c2nc3c(C(N)=O)cccc3[nH]2)CCCN1 [Veliparib] + CC(=O)c1c(C)c2cnc(Nc3ccc(N4CCNCC4)cn3)nc2n(C2CCCC2)c1=O [Palbociclib] (partner 0.5 µM)
Procedure, shortened: as §1

[4] = compound: COC1=CC=C(C=C1)CN2C=CC3=C2C=C(C=C3)C(=O)NO + CC(=O)c1c(C)c2cnc(Nc3ccc(N4CCNCC4)cn3)nc2n(C2CCCC2)c1=O [Palbociclib] (partner 0.5 µM)
Procedure, shortened: as §1

Cell Line	relative viability ([1]; first compound 0.08 µM)	relative viability ([1]; first compound 0.253 µM)	relative viability ([1]; first compound 0.8 µM)	relative viability ([1]; first compound 2.53 µM)	relative viability ([1]; first compound 8 µM)	relative viability ([2]; first compound 0.08 µM)	relative viability ([2]; first compound 0.253 µM)	relative viability ([2]; first compound 0.8 µM)	relative viability ([2]; first compound 2.53 µM)	relative viability ([2]; first compound 8 µM)	relative viability ([3]; first compound 0.02 µM)	relative viability ([3]; first compound 0.06325 µM)	relative viability ([3]; first compound 0.2 µM)	relative viability ([3]; first compound 0.6325 µM)	relative viability ([3]; first compound 2 µM)	relative viability ([4]; first compound 0.08 µM)	relative viability ([4]; first compound 0.253 µM)	relative viability ([4]; first compound 0.8 µM)	relative viability ([4]; first compound 2.53 µM)	relative viability ([4]; first compound 8 µM)
NCI-H2347	0.598	0.748	0.967	0.732	0.677	0.361	0.383	0.396	0.552	0.501	0.44	0.411	0.404	0.444	0.477	0.422	0.445	0.472	0.441	0.428
NCI-H1993	0.746	0.745	0.857	0.8	0.85	0.57	0.812	1.09	0.826	0.845		0.569	0.59	0.614	0.636	0.586	1.12	0.749	0.714	0.593
HCC-827	0.228	0.259	0.159	0.218	0.196	0.537	0.58	0.461	0.51	0.652	0.458	0.459	0.51	0.176	0.454	0.448	0.481	0.442	0.504	0.442
NCI-H1975	0.655	0.766	0.775	0.768	0.576	0.26	0.238	0.281	0.262	0.114	0.533	0.544	0.513	0.543	0.535	0.347	0.627	0.604	0.665	0.537
NCI-H1793		0.726	0.444	0.557	0.406		0.184	0.17	0.18	0.219	0.31	0.292	0.336	0.348	0.331		0.344	0.324	0.32	0.248
NCI-H1651	0.414	0.437	0.394	0.406	0.369	0.927	0.885	1.02	0.816	0.655	0.513	0.497	0.52	0.499	0.485	0.476	0.519	0.525	0.51	0.531
NCI-H1755	0.395	0.439	0.497	0.516	0.35	0.398	0.312	0.499	0.508	0.356	0.46	0.469	0.442	0.455	0.395	0.464	0.48	0.5	0.448	0.423
LCLC-103H	0.764	0.851	0.809	0.851	0.679	0.938	0.99	0.948	1.03	0.883	0.44	0.417	0.48	0.44	0.456	0.435	0.439	0.481	0.466	0.515
NCI-H1915	0.494	0.712	0.676	0.705	0.606	0.646	0.812	0.885	0.84	0.768	0.541	0.461	0.519	0.512	0.504	0.506	0.545	0.518	0.505	0.559
HOP-62	0.358	0.691	0.72	0.554	0.484	0.756	0.876	0.939	0.951	0.94	0.384	0.333	0.483	0.343	0.368	0.321	0.442	0.431	0.413	0.493
HARA		0.588	0.397	0.251	0.202		0.552	0.745	0.111	0.548	0.352	0.174	0.308	0.327	0.265	0.153	0.218	0.243	0.3	0.238
NCI-H1395		0.394	0.382	0.398	0.397	0.662	0.659	0.628	0.708	0.604	0.606	0.58	0.614	0.565	0.554		0.632	0.709	0.6	0.563
NCI-H1792	0.755	0.792	0.716	0.592	0.55	0.37	0.638	0.529	0.35	0.414	0.635	0.603	0.704	0.692	0.659	0.616	0.726	0.626	0.634	0.637
EKVX		0.637	0.699	0.803	0.712	0.864	0.896	0.913	0.858	0.783		0.42	0.403	0.373	0.383		0.408	0.387	0.384	0.351
CAL-12T	0.572	0.537	0.647	0.675	0.589	0.163	0.233	0.528	0.452	0.332	0.179	0.301	0.402	0.382	0.58	0.424	0.517	0.585	0.325	0.566
SW 900	0.646	0.596	0.579	0.597	0.403	0.174	0.234	0.206	0.217	0.165		0.516	0.557	0.539	0.56	0.491	0.564	0.565	0.525	0.51
NCI-H1734		0.612	0.559	0.567	0.481		0.219	0.218	0.181	0.184		0.32	0.351	0.323	0.349		0.367	0.387	0.341	0.34
